Test results published in patent publication US6960587B2, “Condensed pyrazindione derivatives as PDE inhibitors” (Lilly Icos LLC, priority 2000, dated 2005).
Where a name gives a salt, the structure may show the parent alone.

Target: T1, recombinant human PDE5 (Homo sapiens, UniProt O76074)
T1 construct: host or cells: Saccharomyces cerevisiae strain BJ2-54 (ATCC 74465)
Test: PDE5 inhibition, cGMP-PDE one-step assay
Type: biochemical
Details: in vitro

SMILES	IC50 [nM]
CN1CC(=O)N2[C@H](c3ccc4c(c3)OCO4)c3[nH]cnc3C[C@@H]2C1=O (racemic) [Example 1, (+−, cis)-4-Benzo[1,3]dioxol-5-yl-7-methyl-3,4,6,7,8a,9-hexahydro-1,3,4a,7-tetraaza-cyclopenta[b]naphthalene-5,8-dione hydrochloride]	3240
COc1cc2c(cc1OC)[C@@H](c1ccc3c(c1)OCO3)N1C(=O)CN(C)C(=O)[C@@H]1C2 [Example 10]	718
